In patent US20250011300A1, “PIPERAZINYLSULFONYLARYL COMPOUNDS FOR TREATMENT OF BACTERIAL INFECTIONS” (Hoffmann-La Roche Inc., priority 2021, published 2025):
In brackets after ≈: the same amount, converted by molar mass.

Legend:
[1] = test system: E. coli (ATCC 25922); experiment: Minimal Inhibitory Concentration (MIC) assay, E. coli; type: cell-based; details: Escherichia coli, ATCC25922; E. coli ATCC 25922, CAMHB, 20 hours at 35° C.; read-out: MIC E. coli ATCC 25922
How it was run: (§1)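 Broth microdilution in cation-adjusted Mueller Hinton broth, inoculum 5×10^5 CFU/mL, compounds 2-fold serially diluted from 10 mM DMSO stocks. Plates incubated 20 hours at 35° C in ambient air; MIC (μg/mL) is the lowest concentration preventing visible growth.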

[2] = test system: K. pneumonia (ATCC 43816); experiment: Minimal Inhibitory Concentration (MIC) assay, K. pneumonia; type: cell-based; details: Klebsiella pneumoniae; K. pneumoniae ATCC43816, CAMHB, 20 hours at 35° C.; read-out: MIC K. pneumoniae ATCC43816
How it was run: as §1

[3] = biological target: Escherichia coli LpxH (UDP-2,3-diacylglucosamine hydrolase) (Escherichia coli (strain K12), UniProt P43341); experiment: 50% Inhibitory Concentration (IC50) to LpxH, UMP/CMP-Glo Glycosyltransferase Assay kit; type: biochemical
How it was run: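 LpxH hydrolysis of UDP-2,3-diacylglucosamine to lipid X and UMP; UMP produced is converted to ATP and quantified by luciferase luminescence (UMP/CMP-Glo). Inhibition taken from reduced light output.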

Sequence of Escherichia coli LpxH (UDP-2,3-diacylglucosamine hydrolase) (P43341 whole entry): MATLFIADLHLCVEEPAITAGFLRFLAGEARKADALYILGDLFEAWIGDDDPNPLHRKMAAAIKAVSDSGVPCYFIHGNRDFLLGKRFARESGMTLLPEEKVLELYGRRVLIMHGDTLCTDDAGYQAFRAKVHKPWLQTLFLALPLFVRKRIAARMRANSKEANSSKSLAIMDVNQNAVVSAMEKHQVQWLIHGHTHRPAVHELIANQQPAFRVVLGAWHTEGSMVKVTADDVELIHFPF

Structure (SMILES)	MIC [1] [µg/mL]	MIC [2] [µg/mL]	IC50 [3] [nM]
N[C@@H]1CN(C2CC(=O)N(c3ccc(S(=O)(=O)N4CCN(c5cc(C(F)(F)F)cc(Cl)n5)CC4)cc3)C2)C[C@H]1O (stereo partly drawn) [Example 56, 4-[(3R,4R)-3-amino-4-hydroxy-pyrrolidin-1-yl]-1-[4-[4-[6-chloro-4-(trifluoromethyl)-2-pyridyl]piperazin-1-yl]sulfonylphenyl]pyrrolidin-2-one]	1.96 (≈ 3.33 µM)	3.91 (≈ 6.64 µM)	13.6
O=C1CC(N2CCN[C@@H](CO)C2)CN1c1ccc(S(=O)(=O)N2CCN(c3cc(C(F)(F)F)cc(Cl)n3)CC2)cc1 (stereo partly drawn) [Example 54, 1-[4-[4-[6-Chloro-4-(trifluoromethyl)-2-pyridyl]piperazin-1-yl]sulfonylphenyl]-4-[(3R)-3-(hydroxymethyl)piperazin-1-yl]pyrrolidin-2-one]	2 (≈ 3.32 µM)	4 (≈ 6.63 µM)	19.9
O=C1OC2(CCNCC2)CN1c1ccc(S(=O)(=O)N2CCN(c3cc(C(F)(F)F)cc(Cl)n3)CC2)cc1 [Example 14, 3-[4-[4-[6-Chloro-4-(trifluoromethyl)-2-pyridyl]piperazin-1-yl]sulfonylphenyl]-1-oxa-3,8-diazaspiro[4.5]decan-2-one]	1.75 (≈ 3.13 µM)	3.5 (≈ 6.25 µM)	96.4
NCC1CN(c2ccc(S(=O)(=O)N3CCN(c4cc(C(F)(F)F)cc(Cl)n4)CC3)cc2)C(=O)O1 (stereo not drawn) [Example 3, 5-(Aminomethyl)-3-[4-[4-[6-chloro-4-(trifluoromethyl)-2-pyridyl]piperazin-1-yl]sulfonylphenyl]oxazolidin-2-one]	3.96 (≈ 7.62 µM)	1.98 (≈ 3.81 µM)	460
NCC1CN(CC2CN(c3ccc(S(=O)(=O)N4CCN(c5cc(C(F)(F)F)cc(Cl)n5)CC4)cc3)C(=O)O2)C1 (stereo not drawn) [Example 33, 5-[[3-(Aminomethyl)azetidin-1-yl]methyl]-3-[4-[4-[6-chloro-4-(trifluoromethyl)-2-pyridyl]piperazin-1-yl]sulfonylphenyl]oxazolidin-2-one]	1.1 (≈ 1.87 µM)	2.2 (≈ 3.73 µM)	15.3
N#CC1(c2cc(Cl)nc(N3CCN(S(=O)(=O)c4ccc(N5CC(N)CC5=O)cc4)CC3)c2)CC1 (stereo not drawn) [Example 71, 1-[2-[4-[4-(4-Amino-2-oxo-pyrrolidin-1-yl)phenyl]sulfonylpiperazin-1-yl]-6-chloro-4-pyridyl]cyclopropanecarbonitrile]	12.5 (≈ 25 µM)	12.5 (≈ 25 µM)	591
NCC1CN(CC2CC(=O)N(c3ccc(S(=O)(=O)N4CCN(c5cc(C(F)(F)F)cc(Cl)n5)CC4)cc3)C2)C1 (stereo not drawn) [Example 35, 4-[[3-(Aminomethyl)azetidin-1-yl]methyl]-1-[4-[4-[6-chloro-4-(trifluoromethyl)-2-pyridyl]piperazin-1-yl]sulfonylphenyl]pyrrolidin-2-one]	0.64 (≈ 1.09 µM)	1.27 (≈ 2.16 µM)	< 3.41
NC1CC(=O)N(c2ccc(S(=O)(=O)N3CCN(c4cc(C(F)(F)c5ccccn5)cc(Cl)n4)CC3)cc2)C1 (stereo not drawn) [Example 89, 4-Amino-1-[4-[4-[6-chloro-4-[difluoro(2-pyridyl)methyl]-2-pyridyl]piperazin-1-yl]sulfonylphenyl] pyrrolidin-2-one]	0.88 (≈ 1.56 µM)	0.88 (≈ 1.56 µM)	60.4
O=C1CC(NC2CNC2)CN1c1ccc(S(=O)(=O)N2CCN(c3cc(C(F)(F)F)cc(Cl)n3)CC2)cc1 (stereo not drawn) [Example 58, 4-(Azetidin-3-ylamino)-1-[4-[4-[6-chloro-4-(trifluoromethyl)-2-pyridyl]piperazin-1-yl]sulfonylphenyl]pyrrolidin-2-one]	7.44 (≈ 13.3 µM)	14.9 (≈ 26.6 µM)	28.6
COc1cc(C(F)(F)c2ccccc2)nc(N2CCN(S(=O)(=O)c3ccc(N4CC(N)CC4=O)cc3)CC2)n1 (stereo not drawn) [Example 82, 4-Amino-1-[4-[4-[4-[difluoro(phenyl)methyl]-6-methoxy-pyrimidin-2-yl]piperazin-1-yl]sulfonylphenyl]pyrrolidin-2-one]	6.98 (≈ 12.5 µM)	6.98 (≈ 12.5 µM)	247
NC1CC(=O)N(c2ccc(S(=O)(=O)N3CCN(c4cc(C(F)(F)C5CCOCC5)cc(Cl)n4)CC3)cc2)C1 (stereo not drawn) [Example 95, 4-Amino-1-[4-[4-[6-chloro-4-[difluoro(tetrahydropyran-4-yl)methyl]-2-pyridyl]piperazin-1-yl]sulfonylphenyl]pyrrolidin-2-one]	0.89 (≈ 1.56 µM)	0.89 (≈ 1.56 µM)	57.9
NC(=O)[C@H]1CC[C@H](C(F)(F)c2cc(Cl)nc(N3CCN(S(=O)(=O)c4ccc(N5C[C@H](N)CC5=O)cc4)CC3)c2)CC1 [Example 120, Trans-4-[[2-[4-[4-[(4R)-4-amino-2-oxo-pyrrolidin-1-yl]phenyl]sulfonylpiperazin-1-yl]-6-chloro-4-pyridyl]-difluoro-methyl]cyclohexanecarboxamide]	0.96 (≈ 1.57 µM)	0.48 (≈ 0.785 µM)	< 3.27
O=C1CC(CNCC2CNC2)CN1c1ccc(S(=O)(=O)N2CCN(c3cc(C(F)(F)F)cc(Cl)n3)CC2)cc1 (stereo not drawn) [Example 38, 4-[(Azetidin-3-ylmethylamino)methyl]-1-[4-[4-[6-chloro-4-(trifluoromethyl)-2-pyridyl]piperazin-1-yl]sulfonylphenyl]pyrrolidin-2-one]	5.09 (≈ 8.67 µM)	5.09 (≈ 8.67 µM)	47.7
N#CC1CN(c2cc(C(F)(F)F)cc(Cl)n2)CCN1S(=O)(=O)c1ccc(N2CC(N)CC2=O)cc1 (stereo not drawn) [Example 67, 1-[4-(4-Amino-2-oxo-pyrrolidin-1-yl)phenyl]sulfonyl-4-[6-chloro-4-(trifluoromethyl)-2-pyridyl]piperazine-2-carbonitrile]	6.61 (≈ 12.5 µM)	13.2 (≈ 25 µM)	149
CNCCN1CCC[C@H]2OC(=O)N(c3ccc(S(=O)(=O)N4CCN(c5cc(C(F)(F)F)cc(Cl)n5)CC4)cc3)[C@H]2C1 [Example 26, (3aS,8aR)-3-[4-[4-[6-chloro-4-(trifluoromethyl)-2-pyridyl]piperazin-1-yl]sulfonylphenyl]-5-[2-(methylamino)ethyl]-3a,4,6,7,8,8a-hexahydrooxazolo[4,5-c]azepin-2-one]	2.64 (≈ 4.28 µM)	5.28 (≈ 8.56 µM)	32.4
C=Cc1nc(N2CCN(S(=O)(=O)c3ccc(N4CC(N)CC4=O)cc3)CC2)cc(C(F)(F)c2ccccc2)n1 (stereo not drawn) [Example 84, 4-Amino-1-[4-[4-[6-[difluoro(phenyl)methyl]-2-vinyl-pyrimidin-4-yl]piperazin-1-yl]sulfonylphenyl]pyrrolidin-2-one]	4.18 (≈ 7.54 µM)	16.7 (≈ 30.1 µM)	14.4
O=C1CC(N2CC3(CNC3)C2)CN1c1ccc(S(=O)(=O)N2CCN(c3cc(C(F)(F)F)cc(Cl)n3)CC2)cc1 (stereo not drawn) [Example 52, 1-[4-[4-[6-Chloro-4-(trifluoromethyl)-2-pyridyl]piperazin-1-yl]sulfonylphenyl]-4-(2,6-diazaspiro[3.3]heptan-2-yl)pyrrolidin-2-one]	17.5 (≈ 29.9 µM)	17.5 (≈ 29.9 µM)	34.2
O=C1OC(CNC2CCNC2)CN1c1ccc(S(=O)(=O)N2CCN(c3cc(C(F)(F)F)cc(Cl)n3)CC2)cc1 (stereo not drawn) [Example 34, 3-[4-[4-[6-Chloro-4-(trifluoromethyl)-2-pyridyl]piperazin-1-yl]sulfonylphenyl]-5-[(pyrrolidin-3-ylamino)methyl]oxazolidin-2-one]	4.39 (≈ 7.45 µM)	4.39 (≈ 7.45 µM)	27.2
N[C@@H]1CC(=O)N(c2ccc(S(=O)(=O)N3CCN(c4cc(C(F)(F)C5C6COCC65)cc(Cl)n4)CC3)cc2)C1 (stereo partly drawn) [Example 101, (4R)-4-amino-1-[4-[4-[6-chloro-4-[difluoro(3-oxabicyclo[3.1.0]hexan-6-yl)methyl]-2-pyridyl]piperazin-1-yl]sulfonylphenyl]pyrrolidin-2-one]	0.44 (≈ 0.775 µM)	0.89 (≈ 1.57 µM)	96.8
NC1CC(=O)N(c2ccc(S(=O)(=O)N3CCN(c4cc(C(F)(F)c5cccnc5)cc(Cl)n4)CC3)cc2)C1 (stereo not drawn) [Example 90, 4-Amino-1-[4-[4-[6-chloro-4-[difluoro(3-pyridyl)methyl]-2-pyridyl]piperazin-1-yl]sulfonylphenyl]pyrrolidin-2-one]	1.76 (≈ 3.13 µM)	1.76 (≈ 3.13 µM)	12.4
O=C1CC(N2CCN[C@H](CO)C2)CN1c1ccc(S(=O)(=O)N2CCN(c3cc(C(F)(F)F)cc(Cl)n3)CC2)cc1 (stereo partly drawn) [Example 53, 1-[4-[4-[6-Chloro-4-(trifluoromethyl)-2-pyridyl]piperazin-1-yl]sulfonylphenyl]-4-[(3S)-3-(hydroxymethyl)piperazin-1-yl]pyrrolidin-2-one]	2 (≈ 3.32 µM)	3 (≈ 4.97 µM)	6.63
NCCC1CN(c2ccc(S(=O)(=O)N3CCN(c4cc(C(F)(F)F)cc(Cl)n4)CC3)cc2)C(=O)O1 (stereo not drawn) [Example 9, 5-(2-Aminoethyl)-3-[4-[4-[6-chloro-4-(trifluoromethyl)-2-pyridyl]piperazin-1-yl]sulfonylphenyl]oxazolidin-2-one]	1.78 (≈ 3.33 µM)	3.57 (≈ 6.69 µM)	24.3
NC1CC(=O)N(c2ccc(S(=O)(=O)N3CCN(c4cc(C(F)(F)c5cnccn5)cc(Cl)n4)CC3)cc2)C1 (stereo not drawn) [Example 93, 4-Amino-1-[4-[4-[6-chloro-4-[difluoro(pyrazin-2-yl)methyl]-2-pyridyl]piperazin-1-yl]sulfonylphenyl]pyrrolidin-2-one]	1.76 (≈ 3.12 µM)	1.76 (≈ 3.12 µM)	12.4
O=C1O[C@H]2CCNC[C@H]2N1c1ccc(S(=O)(=O)N2CCN(c3cc(C(F)(F)c4ccccc4)cc(Cl)n3)CC2)cc1 [Example 87, (3aR,7aS)-3-[4-[4-[6-chloro-4-[difluoro(phenyl)methyl]-2-pyridyl]piperazin-1-yl]sulfonylphenyl]-3a,4,5,6,7,7a-hexahydrooxazolo[4,5-c]pyridin-2-one]	0.55 (≈ 0.91 µM)	1.09 (≈ 1.8 µM)	11.6
